These results are taken from US3956495A, “2,4-Diaminoquinazolines as antithrombotic agents” (Eli Lilly and Company, priority 1973, dated 1976).

Counter-ions that a name gives are not always drawn.

Assay [1] deals with ADP-induced aggregation (platelet). As to the kind of experiment: ADP-induced platelet aggregation inhibition, in vitro test (Table I). It counts as cell-based. The settings on record: for inhibition at 167 µg/mL: 167 μg/ml. From the text:
(§1) Exp. Biol. Med., 135, 100 (1970), and references cited therein.

Assay [2] deals with collagen-induced aggregation (platelet). Kind of assay: Collagen-induced platelet aggregation inhibition, in vitro test (Table I). It counts as cell-based. The settings on record: for inhibition at 167 µg/mL: 167 μg/ml; for inhibition at 41.7 µg/mL: 41.7 μg/ml; for inhibition at 10.4 µg/mL: 10.4 μg/ml.
From the text: as §1

Assay [3] deals with platelet aggregation to collagen challenge. As to the kind of experiment: Platelet aggregation inhibition to collagen challenge, in vivo-in vitro test after oral administration (Table II). Particulars: stock suspension 1:4, blood one hour and three hours after dosing. On the set-up: species or system guinea pig. Here is the method:
Briefly, the test procedure is as follows: blood samples are obtained from a guinea pig prior to the oral administration of the test compound. The test compound when is administered orally and blood samples withdrawn one hour and three hours after dosing. Each blood sample is treated as described in the in vitro test. The test requires one control group of six animals and six animals per compound per dose. For a more detailed description, see Herrmann et al., Proc. Soc. Exp. Biol. Med., 139, 548 (1972).

[4] abbreviates: Platelet, collagen stock solution 1:32.
Where [5] appears, read: Platelet, collagen stock suspension 1:4.
Where [6] appears, read: Platelet, 83.4 μg/ml, collagen stock suspension 1:4.

For orientation: inhibition means the share of the control response that was lost under treatment. Read a high inhibition as a strong effect. Take `Clc1ccc2nc(N3CCCCC3)nc(N3CCCCC3)c2c1` [2,4-bispiperidino-6-chloroquinazoline]: the inhibition at 167 µg/mL in assay [1] stood at 61%; in assay [2] (setting [4]) it was 91%.
For `Cc1ccc2nc(N3CCOCC3)nc(N3CCOCC3)c2c1` [2,4-bismorpholino-6-methylquinazoline] the same measures were 29% and 62%.
On to `Nc1nc(N2CCOCC2)nc2ccccc12` [2-morpholino-4-aminoquinazoline], for which the inhibition at 41.7 µg/mL in assay [2] (setting [5]) was ≥ 20%.
Same read-out and setting: then `CN1CCN(c2nc(N3CCOCC3)nc3ccccc23)CC1` [2-morpholino-4-(4-methylpiperazinyl)quinazoline dihydrochloride, dihydrate], with ≥ 20%; and `CN(C)c1nc(N(C)C)c2ccccc2n1` [2,4-bis(dimethylamino)quinazoline], with ≥ 20%.
Take 2,4-bispyrrolidinylquinazoline: the “% Inhibition of Aggregation, Collagen” value in assay [2] (2.6 μg/ml, collagen stock suspension undiluted) is recorded as ≥ 20%; in assay [2] (83.4 μg/ml, collagen stock suspension 1:4), ≥ 20%. The “% Inhibition of Aggregation to Collagen Challenge” value in assay [3] (12.5 mg/kg) is ≥ 20%.
Turning to `NCCNc1nc(N2CCOCC2)c2ccccc2n1` [2-(2-aminoethylamino)-4-morpholinoquinazoline dihydrochloride], the inhibition at 83.4 µg/mL in assay [2] (setting [6]) is ≥ 20%.
As to `c1ccc2c(NC34CC5CC(CC(C5)C3)C4)nc(N3CCOCC3)nc2c1` [2-morpholino-4-(1-adamantylamino)quinazoline hydrochloride], the inhibition at 83.4 µg/mL in assay [2] (setting [6]) is ≥ 20%.
In turn, `c1ccc2c(N3CCOCC3)nc(N3CCOCC3)nc2c1` [2,4-bismorpholinoquinazoline] came in with an inhibition at 5.2 µg/mL in assay [1] (5.2 μg/ml) of 51%. The same compound showed an inhibition at 10.4 µg/mL in assay [2] (setting [5]) of 35%.
Turning to `CCN(CC)CCNc1nc(N2CCOCC2)nc2ccccc12` [2-morpholino-4-(2-diethylaminoethylamino)quinazoline hydrochloride], the inhibition at 41.7 µg/mL in assay [2] (setting [5]) was ≥ 20%. Besides, the inhibition at 100 mg/kg in assay [3] (Cavia porcellus, Platelet, 100 mg/kg) is ≥ 20%.
Regarding `CN1CCN(c2nc(N)c3ccccc3n2)CC1` [2-(4-methylpiperazinyl)-4-aminoquinazoline hydrochloride], in assay [2] (setting [6]), the inhibition at 83.4 µg/mL is ≥ 20%.
As to `CCN(CC)CCNc1nc(N2CCCC2)nc2ccccc12` [2-pyrrolidinyl-4-(2-diethylaminoethylamino)quinazoline], in assay [2] (Platelet, collagen stock suspension undiluted), the inhibition at 10.4 µg/mL was ≥ 20%. Besides, the inhibition at 20.8 µg/mL in assay [2] (Platelet, 20.8 μg/ml, collagen stock suspension 1:4) is ≥ 20%.
Turning to `Clc1ccc2nc(N3CCOCC3)nc(N3CCOCC3)c2c1` [2,4-bismorpholino-6-chloroquinazoline], the inhibition at 167 µg/mL was 3% in assay [1] and 25% in assay [2] (setting [4]).
Regarding `CCN(CC)c1nc(N2CCOCC2)nc2ccccc12` [2-morpholino-4-diethylaminoquinazoline, 2-morpholino-4-diethylaminoquinazoline hydrochloride], the inhibition at 10.4 µg/mL in assay [2] (setting [5]) is ≥ 20%.
In the case of `Cc1ccc2nc(N3CCCCC3)nc(N3CCCCC3)c2c1` [2,4-bispiperidino-6-methylquinazoline], the inhibition at 167 µg/mL came out at 5% in assay [1] and 21% in assay [2] (setting [4]).
Turning to `c1ccc2c(N3CCCCC3)nc(N3CCCCC3)nc2c1` [2,4-bispiperidinoquinazoline], the inhibition at 41.7 µg/mL in assay [2] (setting [5]) is ≥ 20%. Moreover, in assay [3] (Cavia porcellus, Platelet, 50 mg/kg), the inhibition at 50 mg/kg is ≥ 20%.
Turning to `CN1CCN(c2nc(N3CCOCC3)c3ccccc3n2)CC1` [2-(4-methylpiperazinyl)-4-morpholinoquinazoline], the inhibition at 83 µg/mL in assay [1] (83 μg/ml) was 44%. Also, at 2.6 µg/mL the inhibition in assay [2] (Platelet, 2.6 μg/ml, collagen stock solution 1:32) was 30%.
